Data on 26 compounds can be found in ChEMBL document CHEMBL1152735, “Synthesis and antiprotozoal activity of novel 1-methylbenzimidazole derivatives” (Bioorg Med Chem, 2009).

pIC50: −log10 of the molar value.

The test system of one test is Giardia intestinalis. The test is described as follows: Antiprotozoal activity against Giardia intestinalis IMSS:0981:1 trophozoites after 48 hrs. The conditions noted are these: Giardia duodenalis. Type of test: functional, organism-based.
A further test has as its system Trichomonas vaginalis. In words: Antiprotozoal activity against Trichomonas vaginalis GT3 trophozoites after 48 hrs. Type of test: functional, organism-based. As to conditions: GT3, 48 h.

Turning to `CC(=O)c1nc2cc(Cl)c(Cl)cc2n1C`, the pIC50 with Giardia intestinalis is 7.46; in the test with Trichomonas vaginalis it was 7.20. Turning to `CNC(=O)c1nc2cc(Cl)c(Cl)cc2n1C`, the negative logarithm of the IC50 (pIC50) in the test on Giardia intestinalis is 6.82; with Trichomonas vaginalis it was 6.65.

Regarding `CC(=O)c1nc2ccccc2n1C`, the pIC50 is 7.06 in the test with Giardia intestinalis and 6.68 in the test on Trichomonas vaginalis. The like results for `CC(=O)c1nc2ccc(Cl)cc2n1C` were, in that order, 7.17 and 6.64. Consider `CN(C)C(=O)c1nc2ccccc2n1C`, for which the pIC50 with Giardia intestinalis was 6.29; with Trichomonas vaginalis it was 6.37.

Turning to `Cn1c(C(N)=O)nc2cc(Cl)ccc21`, the values for the pIC50 with Giardia intestinalis and with Trichomonas vaginalis were 6.63 and 6.73, respectively. The like results for `CC(O)c1nc2ccc(Cl)cc2n1C` (stereo not given) were, in that order, 7.15 and 6.96. On to `CNC(=O)c1nc2cc(Cl)ccc2n1C`, for which the negative logarithm of the IC50 (pIC50) in the test on Giardia intestinalis and in the test with Trichomonas vaginalis was 6.45 in each case. With `CC(O)c1nc2ccccc2n1C` (stereo not given), the pIC50 in the test with Giardia intestinalis was 7.17; in the test on Trichomonas vaginalis, 6.78. The like results for `Cn1c(C(N)=O)nc2ccccc21` were, in that order, 7.03 and 6.78.

Consider `CNC(=O)c1nc2ccc(Cl)cc2n1C`, for which the negative-log IC50 (pIC50) is 7.15 in the test on Giardia intestinalis and 6.98 in the test on Trichomonas vaginalis. For `CC(O)c1nc2cc(Cl)c(Cl)cc2n1C` (stereo not given), in that order: 7.69 and 7.39.

As to `CCOC(=O)c1nc2cc(Cl)ccc2n1C`, the results for the negative-log IC50 (pIC50) in the test with Giardia intestinalis and with Trichomonas vaginalis were 7.40 and 7.57, respectively.

`Cc1ncc([N+](=O)[O-])n1CCO` [METRONIDAZOLE] had a negative logarithm of the IC50 (pIC50) in the test with Trichomonas vaginalis of 6.63. `CC(=O)c1nc2cc(Cl)ccc2n1C`: the negative logarithm of the IC50 (pIC50) in the test with Giardia intestinalis was 7.30; in the test on Trichomonas vaginalis, 6.88. The like results for `CN(C)C(=O)c1nc2ccc(Cl)cc2n1C` were, in that order, 7.40 and 6.62. For `CCOC(=O)c1nc2cc(Cl)c(Cl)cc2n1C`, in that order: 7.56 and 7.53. For the compound `CNC(=O)c1nc2ccccc2n1C`, the pIC50 is 7.22 in the test on Giardia intestinalis and 6.96 in the test with Trichomonas vaginalis. As to `CCCSc1ccc2[nH]c(NC(=O)OC)nc2c1` [ALBENDAZOLE], the negative logarithm of the IC50 (pIC50) with Trichomonas vaginalis was 5.80. As for `CC(O)c1nc2cc(Cl)ccc2n1C` (stereo not given), the pIC50 in the test on Giardia intestinalis is 7.42; in the test with Trichomonas vaginalis, 7.02.

For `CCOC(=O)c1nc2ccc(Cl)cc2n1C`, the pIC50 with Giardia intestinalis is 7.32; with Trichomonas vaginalis it was 7.72. The like results for `Cn1c(C(N)=O)nc2cc(Cl)c(Cl)cc21` were, in that order, 6.34 and 6.87. In the case of `CN(C)C(=O)c1nc2cc(Cl)ccc2n1C`, the negative logarithm of the IC50 (pIC50) with Giardia intestinalis is 6.61; in the test on Trichomonas vaginalis it was 6.68. Consider `CN(C)C(=O)c1nc2cc(Cl)c(Cl)cc2n1C`, for which the figures for the pIC50 in the test on Giardia intestinalis and in the test with Trichomonas vaginalis were 7.13 and 7.12, respectively. For `CCOC(=O)c1nc2ccccc2n1C`, in that order: 7.16 and 7.07. The like results for `Cn1c(C(N)=O)nc2ccc(Cl)cc21` were, in that order, 7.12 and 6.96.

Usually pIC50 stands for −log10 of the IC50, conventionally taken in molar units. Low values mean a large IC50, high ones a small IC50.
